The values that follow come from patent US20170319572A1, “COMBINATION DRUG TREATMENT FOR HEPATITIS C INFECTION” (JANSSEN PHARMACEUTICALS, INC., priority 2015, published 2017).

pIC50: −log10 of the molar value. Entries after “also recorded” stand apart in the source; their conditions may differ.

Series [1] is described as follows: Drug-drug interaction study in humans (Phase-1, open-label, two-group, fixed-sequence, PK). As to conditions: for increase of exposure caused by Odalasvir: co-administration of Odalasvir; for increase of exposure caused by SMV: co-administration of SMV. As for the experimental part:
A drug-drug interaction study (DDI) study is a study designed to investigate whether a drug alters the pharmacokinetics of another drug or drugs or their metabolites.
Compound (III)—Subjects received 800 mg of Compound (III) once daily from Days 1-3, Days 11-13, and Days 21-23. PK blood samples for determination of Compound (III) and metabolite concentrations were collected in reference to the Day 3, Day 13, and Day 23 doses.
Simeprevir—Subjects received 150 mg of Simeprevir (SMV) once daily from Days 4-23. PK blood samples for determination of SMV concentrations were collected in reference to the Day 10, Day 13, Day 20, and Day 23 doses.
Odalasvir—Subjects received a loading dose of 150 mg on Day 14, and 50 mg of Odalasvir once daily from Days 15-23. PK blood samples for determination of Odalasvir concentrations were collected in reference to the Day 20 and Day 23 doses.
Compound (III)—Subjects received 800 mg of Compound (III) once daily from Days 1-3, Days 11-13 and Days 21-23. PK blood samples for determination of Compound (III) and metabolite concentrations were collected in reference to the Day 3, Day 13, and Day 23 doses.
Simeprevir—Subjects receive 150 mg of SMV once daily from Days 4-23. PK blood samples for determination of SMV concentrations were collected in reference to the Day 20 and Day 23 doses.
Odalasvir—Subjects receive a loading dose of 150 mg on Day 4, and 50 mg of Odalasvir once daily from Days 5-23. PK blood samples for determination of Odalasvir concentrations were collected in reference to the Day 10, Day 13, Day 20, and Day 23 doses.
This drug-drug interaction study was intended to assess the safety and tolerability of the described drug combinations at pre-defined time points throughout the study. Study completion/follow-up visit(s) were performed 7 and 28 days after completion of the last study assessment.
A primary objective was to evaluate the effect of multiple oral doses of Odalasvir (alone), Simeprevir (alone), and Odalasvir and Simeprevir on the multiple oral dose PK of Compound (III) (and certain metabolites thereof, such as the major metabolites in systemic circulation) in healthy volunteers. Other objectives were to evaluate the safety and tolerability of multiple oral doses of Compound (III) when administered alone and in combination with single and multiple oral doses of Odalasvir and/or Simeprevir in healthy volunteers; to determine the potential effect of Compound of Compound (III) and/or Odalasvir on the steady-state PK of Simeprevir in healthy volunteers; to determine the potential effect of Compound of Compound (III) and/or Simeprevir on the steady state PK of Odalasvir in healthy volunteers.
Various other PK parameters were estimated including: Clast, t1/2, Tmax, Tlast, CL/F, Vz/F, and λz.
The following daily doses were employed:
Odalasvir: 150 mg loading dose; 50 mg for the remainder of the study period.

The nature of series [2]: Phase 2a open-label combination study, pharmacokinetics and safety. It is filed as in vivo, human. As to conditions: for change of exposure on reducing SMV dosing from 100 mg to 75 mg QD: in vivo. The procedure:
A randomized, Phase 2a, open-label study was carried out to evaluate the safety, pharmacokinetics and efficacy of the combination of Compound (III), Odalasvir and Simeprevir in Genotype 1 treatment-naïve subjects with chronic hepatitis C. Other treatment-naïve subjects included Genotype 2, 3, 4, 5 and 6. The aim of the study was to determine the efficacy, pharmacokinetics (PK), and safety of Compound (III)+Odalasvir±SMV in HCV-infected subjects. […] Efficacy, PK and safety evaluations were conducted during and through 24 weeks post dosing. Up to 15 cohorts were enrolled; data was generated from cohorts that have completed dosing.

For series [3] the following is noted: SMV co-administered with Digoxin (a pgp-substrate); cited from earlier work.
For series [4] the following is noted: SMV co-administered with Rosuvastatin (substrate of OATPs & BCRP); cited from earlier work.
Series [5] deals with Pgp (Homo sapiens, UniProt P08183). The conditions noted are these: cited from earlier work.
Series [6] has as its system NTCP. The conditions noted are these: printed: other OATPs NTCP; read-out: NTCP inhibition IC50; cited from earlier work.
In series [7] the test system is CYP (any CYP). The series can be described thus: CYP inhibition. The conditions noted are these: on any CYP.

Pgp, sequence (P08183 whole entry): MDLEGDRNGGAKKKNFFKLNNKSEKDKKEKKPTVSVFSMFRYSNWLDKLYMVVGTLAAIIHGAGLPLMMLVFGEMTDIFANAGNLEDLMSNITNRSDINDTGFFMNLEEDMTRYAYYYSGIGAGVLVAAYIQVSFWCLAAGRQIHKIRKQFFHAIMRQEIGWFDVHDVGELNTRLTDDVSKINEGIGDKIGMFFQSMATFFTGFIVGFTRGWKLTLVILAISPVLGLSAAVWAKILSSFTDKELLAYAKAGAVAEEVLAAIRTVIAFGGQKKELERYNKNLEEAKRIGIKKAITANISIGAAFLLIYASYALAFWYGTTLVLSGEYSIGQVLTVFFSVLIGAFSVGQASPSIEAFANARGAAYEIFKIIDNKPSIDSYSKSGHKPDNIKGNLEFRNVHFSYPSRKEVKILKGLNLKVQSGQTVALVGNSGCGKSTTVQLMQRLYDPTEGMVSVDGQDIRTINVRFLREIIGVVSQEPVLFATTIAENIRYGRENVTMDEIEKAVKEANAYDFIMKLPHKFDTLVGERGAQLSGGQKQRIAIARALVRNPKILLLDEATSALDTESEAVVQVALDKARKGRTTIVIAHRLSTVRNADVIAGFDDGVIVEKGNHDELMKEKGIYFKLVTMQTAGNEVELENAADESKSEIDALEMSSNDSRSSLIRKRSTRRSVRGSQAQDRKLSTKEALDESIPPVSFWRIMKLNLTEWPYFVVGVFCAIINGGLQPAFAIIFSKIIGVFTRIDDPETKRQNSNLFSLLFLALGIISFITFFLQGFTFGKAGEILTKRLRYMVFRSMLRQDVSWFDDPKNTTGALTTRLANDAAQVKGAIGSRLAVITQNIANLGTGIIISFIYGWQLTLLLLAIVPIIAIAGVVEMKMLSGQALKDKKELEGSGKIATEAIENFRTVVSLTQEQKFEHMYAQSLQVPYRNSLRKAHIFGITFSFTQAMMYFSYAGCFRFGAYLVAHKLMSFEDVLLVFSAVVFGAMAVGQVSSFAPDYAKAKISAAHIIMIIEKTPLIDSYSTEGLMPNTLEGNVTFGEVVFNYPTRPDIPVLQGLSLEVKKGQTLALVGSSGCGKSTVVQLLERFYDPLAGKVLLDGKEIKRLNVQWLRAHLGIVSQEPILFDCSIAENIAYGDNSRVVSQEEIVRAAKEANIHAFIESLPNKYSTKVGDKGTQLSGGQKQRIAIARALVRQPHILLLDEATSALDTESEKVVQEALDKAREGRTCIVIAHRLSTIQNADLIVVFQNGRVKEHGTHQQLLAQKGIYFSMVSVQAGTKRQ

Turning to `C[C@]1(O)[C@H](n2ccc(=O)[nH]c2=O)O[C@](F)(CO)[C@H]1O` [Compound A-1], in series [1] (DDI study), the “increase of exposure caused by Odalasvir” value was 1.5 × and the “increase of exposure caused by SMV” value is recorded as “no apparent effect”. The “change of exposure on increasing Compound (III) dose from 400 to 800 mg” value in series [2] (HCV patients) is on record as “less than proportionally”.
As for `C[C@H](NP(=O)(O)OC[C@@]1(F)O[C@@H](n2ccc(=O)[nH]c2=O)[C@](C)(O)[C@@H]1O)C(=O)O` [Compound A-3], in series [1] (DDI study), the “increase of exposure caused by Odalasvir” value was found to be 2.6 × and the “increase of exposure caused by SMV” value is given as 1.6 ×.
By pIC50 is commonly meant −log10 of the IC50, conventionally taken in molar units. Regarding `COc1ccc2c(O[C@@H]3C[C@H]4C(=O)N[C@]5(C(=O)NS(=O)(=O)C6CC6)C[C@H]5/C=C\CCCCN(C)C(=O)[C@@H]4C3)cc(-c3nc(C(C)C)cs3)nc2c1C` [SMV, Simeprevir, reference compound], the “increase of exposure, effect of the three Compounds” value in series [1] (DDI study, Compound (III) + SMV + Odalasvir together) was 1.6 ×. The “effect of Compound (III) on exposure/bioavailability” value in series [1] (DDI study, co-administration of Compound (III)) is reported as “no apparent effect; also recorded: does not alter the bioavailability”. Further, in series [1] (DDI study), the “increase of exposure caused by Odalasvir” value is recorded as 1.6 ×. For the same compound, the “increase of exposure in the combination” value in series [1] (human in vivo study (Example 1), three drugs combined) stood at 1.6 times. Moreover, the “increase of bioavailability by ODV” value in series [1] (human subjects) stood at 1.6 fold. Also, the “observed exposure in Cohort 1 / group (i)” value in series [2] (Compound (III) 400 mg, ODV 50 mg QD, SMV 100 mg QD) is given as “higher than anticipated”. The results for the “change of exposure on reducing SMV dosing from 100 mg to 75 mg QD” value in series [2] and in series [2] (listed as Simeprevir) were “decreased SMV exposure less than proportionally” and “decreased Simeprevir exposure less than proportionally”, respectively. Besides, in series [3], the “increase in exposure of Digoxin” value is on record as 35%. The “increase in Rosuvastatin exposure” value in series [4] is on record as 3 fold. The “in vitro inhibition of Pgp” value in series [5] is on record as “strong/moderate in vitro inhibition”. Moreover, the pIC50 in series [6] was 5.66. In series [7], the CYP inhibition potential result was “limited”.
